Data as given in ChEMBL document CHEMBL4387715, “Singlet oxygen-activatable Paclitaxel prodrugs via intermolecular activation for combined PDT and chemotherapy” (Bioorg Med Chem Lett, 2019).
Activity calls are given as the source filed them. No cut-off for these calls is given here.

Tests used:
[1] = Lipophilicity, log D of the compound at pH 7.4; assay type: physicochemical; details: buffer
[2] = Dark toxicity in rat AY27 cells assessed as reduction in cell viability at 0.025 to 1.25 uM preincubated for 2 hrs followed by 30 mins incubation under dark condition measured after 24 hrs in presence of Hexyl-5-aminolevulinic acid by MTT assay; assay type: cell-based; details: ay-27, 1.25 µM
[3] = Lipophilicity, log D of the compound at pH 7.4 by shake flask method; assay type: physicochemical; details: buffer
[4] = Photocytotoxicity against rat AY27 cells assessed as cell death at 0.25 uM incubated for 2 hrs followed by 10 mW/cm2 laser light irradiation for 30 mins and measured after 24 hrs in presence of Hexyl-5-aminolevulinic acid by MTT assay relative to control; assay type: functional, AY-27
[5] = Dark toxicity in rat AY27 cells assessed as reduction in cell viability at 0.025 to 1.25 uM preincubated for 2 hrs followed by 30 mins incubation under dark condition and measured after 24 hrs by MTT assay; assay type: cell-based; details: ay-27, 1.25 µM
AY-27 = assay: Photocytotoxicity against rat AY27 cells assessed as cell death at 0.025 to 1.25 uM incubated for 2 hrs followed by 10 mW/cm2 laser light irradiation for 30 mins and measured after 24 hrs by MTT assay; assay type: functional, cell-based
[6] = Drug localization in mitochondria of rat AY27 cells at 0.5 uM assessed as protoporphyrin IX level after 2 hrs by Mitotracker deep Red staining-based confocal fluorescence microscopic method; assay type: ADME; details: ay-27, 2 h
[7] = Photodynamic anticancer activity against rat AY27 cells assessed as cell death at 0.5 uM incubated for 2 hrs followed by 10 mW/cm2 laser light irradiation for 30 mins and measured after 24 hrs by MTT assay relative to control; assay type: functional, AY-27
[8] = Drug localization in mitochondria of rat AY27 cells at 0.5 uM after 30 mins by Mitotracker deep Red staining-based confocal fluorescence microscopy; assay type: ADME; details: ay-27, 0.5 h
[9] = Drug uptake in rat AY27 cells at 1 uM by texas red probe-based fluorescence microscopy; assay type: ADME, cell-based; details: ay-27, 1 µM, TDE = time-dependent effect
[10] = Drug uptake in rat AY27 cells assessed per cell at 5 uM measured after 120 mins by fluorescence assay; assay type: ADME, cell-based; details: ay-27, 2 h

Q: For `CC(=O)O[C@H]1C(=O)[C@@]2(C)[C@H]([C@H](OC(=O)c3ccccc3)[C@]3(O)C[C@H](OC(=O)[C@H](O)[C@@H](NC(=O)c4ccccc4)c4ccccc4)C(C)=C1C3(C)C)[C@]1(OC(C)=O)CO[C@@H]1C[C@@H]2O` [PACLITAXEL], which logD [1] is on record?
A: 3.6

Q: Which Activity [2] does the source give for `CC(=O)O[C@H]1C(=O)[C@@]2(C)[C@H]([C@H](OC(=O)c3ccccc3)[C@]3(O)C[C@H](OC(=O)C(OC(=O)/C=C/N4CCC(COCCC[P+](c5ccccc5)(c5ccccc5)c5ccccc5)CC4)[C@@H](NC(=O)c4ccccc4)c4ccccc4)C(C)=C1C3(C)C)[C@]1(OC(C)=O)CO[C@@H]1C[C@@H]2O.[Br-]` (stereo partly specified) here?
A: Non-Toxic

Q: And the logD [3]?
A: 1.3

Q: What about the Activity [4] of the same compound?
A: 80%

Q: What about the Activity [5] of the same compound?
A: Non-Toxic

Q: What about the Activity (AY-27) of the same compound?
A: inactive

Q: For `CC(=O)O[C@H]1C(=O)[C@@]2(C)[C@H]([C@H](OC(=O)c3ccccc3)[C@]3(O)C[C@H](OC(=O)C(OC(=O)/C=C/N4CCC(COC(=O)c5cc[n+](C)cc5)CC4)[C@@H](NC(=O)c4ccccc4)c4ccccc4)C(C)=C1C3(C)C)[C@]1(OC(C)=O)CO[C@@H]1C[C@@H]2O.[Cl-]` (stereo partly specified), which Activity [2] is on record?
A: Non-Toxic

Q: And the logD [3]?
A: 1

Q: And the Activity [4]?
A: 82%

Q: What about the Activity [5] of the same compound?
A: Non-Toxic

Q: And the Activity (AY-27)?
A: inactive

Q: What does the source list for `CCCCCCOC(=O)CCC(=O)CN` [HEXAMINOLEVULINATE]?
A: Drug uptake [6]: Active; Activity [7]: 40%

Q: What does the source list for `CCN(CC)c1ccc2c(-c3ccccc3C(=O)OCC3CCN(/C=C/C(=O)OC(C(=O)O[C@H]4C[C@@]5(O)[C@@H](OC(=O)c6ccccc6)[C@@H]6[C@]7(OC(C)=O)CO[C@@H]7C[C@H](O)[C@@]6(C)C(=O)[C@H](OC(C)=O)C(=C4C)C5(C)C)[C@@H](NC(=O)c4ccccc4)c4ccccc4)CC3)c3ccc(=[N+](CC)CC)cc-3oc2c1.[Cl-]` (stereo partly specified)?
A: Activity [2]: Non-Toxic; logD [3]: 1.9; Drug uptake [8]: Active; Drug uptake [9]: Tde; Drug uptake [10]: 0.68 fmol; Activity [4]: 84%; Activity [5]: Non-Toxic; Activity (AY-27): inactive
